Experimental data published in patent US12110283B2, “Carbonic anhydrase targeting agents and methods of using same” (VisEn Medical, Inc., priority 2011, dated 2024).

What was measured:
[1] = target: CA XII (Homo sapiens, UniProt O43570); experiment: Ki by stopped flow CO2 hydration assay, CA XII; type: biochemical; settings: rate of CO2 hydration, stopped flow method
Description: (§1) In this experiment, Ki values were determined by measuring the rate of CO2 hydration of the CA spectrophotometrically by a stopped flow method in the presence of varying concentrations of the CA agents.

[2] = target: T1, CA IX (Homo sapiens, UniProt Q16790); experiment: Ki by stopped flow CO2 hydration assay, CA IX; type: biochemical; settings: for Ki: rate of CO2 hydration, stopped flow method
T1 construct: confirming upregulation and expression of CA IX in these cells; endogenous in cells; host or cells: HeLa cells, hypoxic (1% O2) or normoxic
Description: as §1

[3] = target: CA II (Homo sapiens, UniProt P00918); experiment: Ki by stopped flow CO2 hydration assay, CA II; type: biochemical; settings: rate of CO2 hydration, stopped flow method
Description: as §1

[4] = target: CA XIV (Homo sapiens, UniProt Q9ULX7); experiment: Ki by stopped flow CO2 hydration assay, CA XIV; type: biochemical; settings: rate of CO2 hydration, stopped flow method
Chain of CA XIV (Q9ULX7 16-337, species assumed): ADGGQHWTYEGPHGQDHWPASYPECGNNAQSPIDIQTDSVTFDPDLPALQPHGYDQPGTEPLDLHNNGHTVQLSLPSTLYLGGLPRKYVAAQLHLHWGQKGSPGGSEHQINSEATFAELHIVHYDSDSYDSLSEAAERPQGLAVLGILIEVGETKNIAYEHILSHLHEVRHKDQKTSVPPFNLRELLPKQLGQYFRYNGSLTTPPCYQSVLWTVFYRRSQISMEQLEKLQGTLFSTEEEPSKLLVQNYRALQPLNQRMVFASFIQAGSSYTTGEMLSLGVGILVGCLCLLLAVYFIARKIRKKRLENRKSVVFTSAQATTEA
Description: as §1

[5] = target: T1, CA IX; experiment: Carbonic anhydrase dependent binding of CA agents to HeLa cells (fluorescence microscopy, flow cytometry); type: cell-based; settings: for binding to hypoxic HeLa cells, flow cytometry (FIG. 3) / binding to hypoxic and normoxic HeLa cells, fluorescence microscopy (FIG. 2): HeLa cells 24 h in air or 1% O2, agents 1 μM, 30 min; for binding to hypoxic HeLa cells after excess acetazolamide, fluorescence microscopy (FIG. 2) / signal on hypoxic HeLa cells with acetazolamide, flow cytometry (FIG. 3): acetazolamide 100 μM for 2 hour before the agent
Description: Cell binding assays using HeLa cells cultured under […] were performed. Hela cells (28,000 cells/cm^2) were cultured in 6 well culture plates for 24 h under normoxic (air) or hypoxic (1% O2) conditions. Incubation with a fluorescent anti CA IX Ab (R&D systems) was performed in one well as a positive control followed by incubation for 1 h at 37° C. Carbonic anhydrase agents A5 and A3 (1 μM) or nonbinding control agent D3 were added to individual wells followed by incubation for 30 min. Cells were rinsed three times with PBS then scraped with 2 mL, transferred to 5 mL tubes and then spun for 10 min at 1000 rpm to discard the PBS. The cells were then re-suspend the cells in 400 μL PBS and analyzed by fluorescence microscopy and flow cytometry. For fluorescence microscopy, nuclei were co-stained with DAPI. For the competition study, cells were incubated with acetazolamide (Az) (100 μM) for 2 hour before incubation with agents.

[6] = system: HeLa tumors; experiment: Imaging of tumors in vivo using CA agents (planar reflectance and FMT); settings: NU/NU mice, bilateral HeLa tumors, 2 nmoles i.v., 24 hrs post-injection
Description: In this experiment, NU/NU mice 6-8 weeks old (Charles River Laboratory, Wilmington, MA) were injected subcutaneously (s.c.) with about 2×10^6 HeLa cells bilaterally in each mammary fat pad. When tumors reached an approximate size of 3×3 mm, mice were injected intravenously (i.v.) with 2 nmoles of carbonic anhydrase agent C5 or nonbinding control agent D3 (5 mice/probe+2 mice/no probe as control) in 100 μL volume via tail vein. Imaging was conducted at 24 hrs post-injection using a Fluorescence Molecular Tomography system (VisEn Medical, Bedford, MA) that is commercially available.

[7] = Biodistribution of i.v. administered compound in HeLa tumor bearing mice; type: in vivo; settings: 2 nmoles i.v., 24 hr, excised tissues, reflectance mode
Description: Female NU/NU mice 6-8 weeks old (Charles River Laboratory, Wilmington, MA) were injected subcutaneously (s.c.) with HeLa cells (5×10^6) in the first mammary fat pads. Once tumors reached the desired volume (measured with calipers using the formula volume mm^3=(length×width^2)/2), mice were injected i.v. with compound C5 (2 nmoles) or nonbinding control D3. Mice were sacrificed by carbon dioxide asphyxiation 24 hr later and certain tissues removed, rinsed with saline, blotted dry, and the imaged on a VisEn FMT 2500 using the reflectance mode. Regions of interest (ROIs) were drawn around each organ using the FMT Software and the mean fluorescence (reported as counts/energy) determined for each organ and normalized to the mean fluorescence in tumors taken to be 100%.

Chain of CA XII (O43570 25-354, species assumed): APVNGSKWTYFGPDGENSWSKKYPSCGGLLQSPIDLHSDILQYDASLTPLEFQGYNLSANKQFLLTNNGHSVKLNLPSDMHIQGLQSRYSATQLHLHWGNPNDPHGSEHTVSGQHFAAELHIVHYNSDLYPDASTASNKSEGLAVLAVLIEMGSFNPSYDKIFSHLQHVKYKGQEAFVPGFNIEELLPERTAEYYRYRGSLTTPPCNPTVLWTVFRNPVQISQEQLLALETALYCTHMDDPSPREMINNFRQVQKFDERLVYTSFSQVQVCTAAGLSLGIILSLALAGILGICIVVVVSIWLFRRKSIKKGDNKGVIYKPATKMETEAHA

SMILES	Ki [1]	Ki [2]	Ki [3]	Ki [4]	binding to hypoxic HeLa cells, flow cytometry (FIG. 3) [5]	binding to hypoxic and normoxic HeLa cells, fluorescence microscopy (FIG. 2) [5]	binding to hypoxic HeLa cells after excess acetazolamide, fluorescence microscopy (FIG. 2) [5]	signal on hypoxic HeLa cells with acetazolamide, flow cytometry (FIG. 3) [5]	specific binding to carbonic anhydrases ([2]; summary in words of Table 5: CA II, CA IX, CA XII, CA XIV)	tumor signal by planar reflectance and tomographic imaging [6]	tissue fluorescence (biodistribution), normalized to tumors (FIG. 4) [7]
CCN1/C(=C/C=C(/C=C/C2=[N+](CC)c3ccc4c(S(=O)(=O)[O-])cc(S(=O)(=O)O)cc4c3C2(C)C)c2ccc(C(=O)NCc3ccc(S(N)(=O)=O)cc3)cn2)C(C)(C)c2c1ccc1c(S(=O)(=O)O)cc(S(=O)(=O)O)cc21 [Compound B6, 3-ethyl-2-((1E,3Z,5E)-5-(3-ethyl-1,1-dimethyl-6,8-disulfo-1H-benzo[e]indol-2(3H)-ylidene)-3-(5-((4-sulfamoylbenzyl)carbamoyl)pyridin-2-yl)penta-1,3-dien-1-yl)-1,1-dimethyl-8-sulfo-1H-benzo[e]indol-3-ium-6-sulfonate]	40 nM	9.9 nM	502 nM	69 nM							
CC1(C)C(/C=C/C(=C/C=C2/N(CCCS(=O)(=O)O)c3ccc4c(S(=O)(=O)O)cc(S(=O)(=O)O)cc4c3C2(C)C)c2ccc(C(=O)NCCCCCC(=O)NCc3ccc(C(=O)Nc4nnc(S(N)(=O)=O)s4)cc3)cn2)=[N+](CCCS(=O)(=O)[O-])c2ccc3c(S(=O)(=O)O)cc(S(=O)(=O)O)cc3c21 [Compound A3, 3-(2-((1E,3Z,5E)-5-(1,1-dimethyl-6,8-disulfo-3-(3-sulfopropyl)-1H-benzo[e]indol-2(3H)-ylidene)-3-(5-((6-oxo-6-((4-((5-sulfamoyl-1,3,4-thiadiazol-2-yl)carbamoyl)benzyl)amino)hexyl)carbamoyl)pyridin-2-yl)penta-1,3-dien-1-yl)-1,1-dimethyl-6,8-disulfo-1H-benzo[e]indol-3-ium-3-yl)propane-1-sulfonate]	36 nM	7.6 nM	9.8 nM	57 nM	increased binding	bound to CA IX receptors on the surface of the hypoxic cells but not normoxic cells	binding can be blocked	blocking of the signal			
CC1(C)C(/C=C/C(=C/C=C2/N(CCCS(=O)(=O)O)c3ccc4c(S(=O)(=O)O)cc(S(=O)(=O)O)cc4c3C2(C)C)c2ccc(C(=O)NCc3ccc(C(=O)Nc4nnc(S(N)(=O)=O)s4)cc3)cn2)=[N+](CCCS(=O)(=O)[O-])c2ccc3c(S(=O)(=O)O)cc(S(=O)(=O)O)cc3c21 [Compound A5, 3-(2-((1E,3Z,5E)-5-(1,1-dimethyl-6,8-disulfo-3-(3-sulfopropyl)-1H-benzo[e]indol-2(3H)-ylidene)-3-(5-((4-((5-sulfamoyl-1,3,4-thiadiazol-2-yl)carbamoyl)benzyl)carbamoyl)pyridin-2-yl)penta-1,3-dien-1-yl)-1,1-dimethyl-6,8-disulfo-1H-benzo[e]indol-3-ium-3-yl)propane-1-sulfonate]	43 nM	7.9 nM	271 nM	45 nM	increased binding	bound to CA IX receptors on the surface of the hypoxic cells but not normoxic cells	binding can be blocked	blocking of the signal			
CC1(C)C(/C=C/C(=C/C=C2/N(CCCS(=O)(=O)O)c3ccc4c(S(=O)(=O)O)cc(S(=O)(=O)O)cc4c3C2(C)C)c2ccc(C(=O)NCCCCCC(=O)NCc3ccccc3)cn2)=[N+](CCCS(=O)(=O)[O-])c2ccc3c(S(=O)(=O)O)cc(S(=O)(=O)O)cc3c21 [Compound D3, 3-(2-((1E,3Z,5E)-3-(5-((6-(benzylamino)-6-oxohexyl)carbamoyl)pyridin-2-yl)-5-(1,1-dimethyl-6,8-disulfo-3-(3-sulfopropyl)-1H-benzo[e]indol-2(3H)-ylidene)penta-1,3-dien-1-yl)-1,1-dimethyl-6,8-disulfo-1H-benzo[e]indol-3-ium-3-yl)propane-1-sulfonate]	> 100000 nM	> 100000 nM	> 100000 nM	> 100000 nM	not	doesn't bind to either normoxic or hypoxic cells			no specific binding is detected	little or no tumor signal	fluorescence accumulation only in the kidneys
CCN1/C(=C/C=C(/C=C/C2=[N+](CC)c3ccc4c(S(=O)(=O)[O-])cc(S(=O)(=O)O)cc4c3C2(C)C)c2ccc(C(=O)NCc3ccc(C(=O)Nc4nnc(S(N)(=O)=O)s4)cc3)cn2)C(C)(C)c2c1ccc1c(S(=O)(=O)O)cc(S(=O)(=O)O)cc21 [Compound A6, 3-ethyl-2-((1E,3Z,5E)-5-(3-ethyl-1,1-dimethyl-6,8-disulfo-1H-benzo[e]indol-2(3H)-ylidene)-3-(5-((4-((5-sulfamoyl-1,3,4-thiadiazol-2-yl)carbamoyl)benzyl)carbamoyl)pyridin-2-yl)penta-1,3-dien-1-yl)-1,1-dimethyl-8-sulfo-1H-benzo[e]indol-3-ium-6-sulfonate]	40 nM	7.7 nM	27.1 nM	84 nM							
CN(CCCC(=O)NCc1ccc(C(=O)Nc2nnc(S(N)(=O)=O)s2)cc1)S(=O)(=O)c1cccc2c3c(ccc12)[N+](CCCS(=O)(=O)[O-])=C(/C=C/C=C/C=C1/N(CCCS(=O)(=O)O)c2ccc4c(S(=O)(=O)O)cc(S(=O)(=O)O)cc4c2C1(C)C)C3(C)C [Compound A1, 3-(2-((1E,3E,5E)-5-(1,1-dimethyl-6,8-disulfo-3-(3-sulfopropyl)-1H-benzo[e]indol-2(3H)-ylidene)penta-1,3-dien-1-yl)-1,1-dimethyl-6-(N-methyl-N-(4-oxo-4-((4-((5-sulfamoyl-1,3,4-thiadiazol-2-yl)carbamoyl)benzyl)amino)butyl)sulfamoyl)-1H-benzo[e]indol-3-ium-3-yl)propane-1-sulfonate]	57 nM	8.4 nM	288 nM	77 nM							
